Holding throughout (conditions): dose 10-50 µM
Experiment [1] concerns the target Ubiquitin carboxyl-terminal hydrolase 7 (Homo sapiens) (UniProt Q93009). The experiment can be described thus: Inhibition of human USP7 (1 to 1102 residues) expressed in Sf9 cells using ubiquitin rhodamine 110 as substrate assessed as remaining enzyme activity at 10 to 50 uM by fluorometric assay.
Experiment [2] deals with T1, Ubiquitin carboxyl-terminal hydrolase 4 (Homo sapiens) (UniProt Q13107).
T1 sequence (whole entry): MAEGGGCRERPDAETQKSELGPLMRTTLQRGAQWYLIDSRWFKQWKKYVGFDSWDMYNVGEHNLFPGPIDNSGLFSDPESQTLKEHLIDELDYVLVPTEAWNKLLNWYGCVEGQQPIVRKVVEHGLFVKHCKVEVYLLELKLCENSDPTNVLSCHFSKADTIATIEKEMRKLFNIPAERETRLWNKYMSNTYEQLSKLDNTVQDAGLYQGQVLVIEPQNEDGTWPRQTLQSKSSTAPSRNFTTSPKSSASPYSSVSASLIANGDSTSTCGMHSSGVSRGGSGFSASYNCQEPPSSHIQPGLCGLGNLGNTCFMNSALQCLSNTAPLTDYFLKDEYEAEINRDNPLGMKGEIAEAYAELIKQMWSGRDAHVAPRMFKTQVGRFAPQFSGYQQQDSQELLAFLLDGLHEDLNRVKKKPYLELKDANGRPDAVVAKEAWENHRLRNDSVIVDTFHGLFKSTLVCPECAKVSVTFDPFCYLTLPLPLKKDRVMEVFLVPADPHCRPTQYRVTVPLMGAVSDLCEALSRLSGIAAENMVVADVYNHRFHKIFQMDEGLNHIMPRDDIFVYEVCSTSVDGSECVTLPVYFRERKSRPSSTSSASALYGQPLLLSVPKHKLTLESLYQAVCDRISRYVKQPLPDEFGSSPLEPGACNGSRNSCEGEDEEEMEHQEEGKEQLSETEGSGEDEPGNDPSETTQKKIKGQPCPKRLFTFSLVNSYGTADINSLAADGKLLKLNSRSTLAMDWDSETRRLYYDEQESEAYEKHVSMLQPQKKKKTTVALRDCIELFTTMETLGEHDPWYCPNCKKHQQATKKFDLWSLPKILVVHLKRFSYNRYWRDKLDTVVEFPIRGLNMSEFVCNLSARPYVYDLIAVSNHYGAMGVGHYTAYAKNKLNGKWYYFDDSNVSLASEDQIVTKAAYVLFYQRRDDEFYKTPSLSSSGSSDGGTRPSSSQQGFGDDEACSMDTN
The experiment can be described thus: Inhibition of human USP4 (1 to 932 residues) expressed in Sf9 cells using ubiquitin rhodamine 110 as substrate assessed as remaining enzyme activity at 10 to 50 uM by fluorometric assay.

For experiment [3], the target named is T2, Ubiquitin carboxyl-terminal hydrolase 5 (Homo sapiens) (UniProt P45974).
T2 sequence (whole entry): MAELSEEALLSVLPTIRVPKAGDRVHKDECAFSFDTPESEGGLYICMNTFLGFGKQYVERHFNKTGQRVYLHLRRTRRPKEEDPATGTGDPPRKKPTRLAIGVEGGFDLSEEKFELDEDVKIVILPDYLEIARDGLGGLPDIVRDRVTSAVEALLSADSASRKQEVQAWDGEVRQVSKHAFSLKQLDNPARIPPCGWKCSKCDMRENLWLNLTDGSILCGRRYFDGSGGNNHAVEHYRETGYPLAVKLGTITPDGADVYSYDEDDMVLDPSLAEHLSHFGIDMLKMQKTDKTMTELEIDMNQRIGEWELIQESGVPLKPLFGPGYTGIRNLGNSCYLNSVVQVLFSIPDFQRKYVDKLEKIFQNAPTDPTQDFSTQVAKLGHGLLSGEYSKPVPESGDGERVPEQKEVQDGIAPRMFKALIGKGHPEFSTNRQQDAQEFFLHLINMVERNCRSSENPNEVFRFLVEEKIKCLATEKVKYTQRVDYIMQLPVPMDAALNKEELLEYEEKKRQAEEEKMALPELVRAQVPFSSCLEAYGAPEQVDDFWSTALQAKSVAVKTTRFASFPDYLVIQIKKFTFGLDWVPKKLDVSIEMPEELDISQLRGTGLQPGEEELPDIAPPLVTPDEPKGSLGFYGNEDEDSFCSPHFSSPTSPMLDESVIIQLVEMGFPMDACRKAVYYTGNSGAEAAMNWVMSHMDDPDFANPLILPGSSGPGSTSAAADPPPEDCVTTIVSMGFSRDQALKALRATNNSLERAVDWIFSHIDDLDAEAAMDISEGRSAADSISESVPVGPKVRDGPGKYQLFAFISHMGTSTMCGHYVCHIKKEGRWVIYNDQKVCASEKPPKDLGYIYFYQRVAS
Nature of the experiment: Inhibition of human USP5 using ubiquitin rhodamine 110 as substrate at 10 to 50 uM by fluorometric assay.

The target of experiment [4] is T3, Ubiquitin carboxyl-terminal hydrolase 2 (Homo sapiens) (UniProt O75604).
T3 sequence (whole entry): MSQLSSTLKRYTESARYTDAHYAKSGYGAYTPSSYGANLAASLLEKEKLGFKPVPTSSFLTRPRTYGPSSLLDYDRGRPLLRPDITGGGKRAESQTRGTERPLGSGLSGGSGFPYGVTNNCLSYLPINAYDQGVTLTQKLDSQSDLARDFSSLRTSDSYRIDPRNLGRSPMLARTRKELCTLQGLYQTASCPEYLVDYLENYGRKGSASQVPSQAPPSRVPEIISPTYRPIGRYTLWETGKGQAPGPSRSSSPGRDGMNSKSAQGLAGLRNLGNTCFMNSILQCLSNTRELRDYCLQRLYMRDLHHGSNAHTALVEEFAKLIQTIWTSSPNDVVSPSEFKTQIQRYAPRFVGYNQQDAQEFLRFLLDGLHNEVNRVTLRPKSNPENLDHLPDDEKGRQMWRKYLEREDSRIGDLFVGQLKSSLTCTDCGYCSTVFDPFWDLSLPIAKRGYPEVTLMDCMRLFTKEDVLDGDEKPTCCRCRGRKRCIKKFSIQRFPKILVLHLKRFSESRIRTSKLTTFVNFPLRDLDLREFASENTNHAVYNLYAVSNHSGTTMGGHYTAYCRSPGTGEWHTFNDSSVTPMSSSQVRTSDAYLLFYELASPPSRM
The experiment can be described thus: Inhibition of human USP2 using ubiquitin rhodamine 110 as substrate at 10 to 50 uM by fluorometric assay.

For two molecules, Activity and inhibition results are on record in ChEMBL document CHEMBL5247643, “Discovery and Characterization of BAY-805, a Potent and Selective Inhibitor of Ubiquitin-Specific Protease USP21” (J Med Chem, 2023).

The structures appear in SMILES notation. Activity calls are given as the source filed them. The rule behind the calls is not given here.

Sequence of Ubiquitin carboxyl-terminal hydrolase 7 (Homo sapiens) (Q93009 whole entry, looked up, the tested form may be a part): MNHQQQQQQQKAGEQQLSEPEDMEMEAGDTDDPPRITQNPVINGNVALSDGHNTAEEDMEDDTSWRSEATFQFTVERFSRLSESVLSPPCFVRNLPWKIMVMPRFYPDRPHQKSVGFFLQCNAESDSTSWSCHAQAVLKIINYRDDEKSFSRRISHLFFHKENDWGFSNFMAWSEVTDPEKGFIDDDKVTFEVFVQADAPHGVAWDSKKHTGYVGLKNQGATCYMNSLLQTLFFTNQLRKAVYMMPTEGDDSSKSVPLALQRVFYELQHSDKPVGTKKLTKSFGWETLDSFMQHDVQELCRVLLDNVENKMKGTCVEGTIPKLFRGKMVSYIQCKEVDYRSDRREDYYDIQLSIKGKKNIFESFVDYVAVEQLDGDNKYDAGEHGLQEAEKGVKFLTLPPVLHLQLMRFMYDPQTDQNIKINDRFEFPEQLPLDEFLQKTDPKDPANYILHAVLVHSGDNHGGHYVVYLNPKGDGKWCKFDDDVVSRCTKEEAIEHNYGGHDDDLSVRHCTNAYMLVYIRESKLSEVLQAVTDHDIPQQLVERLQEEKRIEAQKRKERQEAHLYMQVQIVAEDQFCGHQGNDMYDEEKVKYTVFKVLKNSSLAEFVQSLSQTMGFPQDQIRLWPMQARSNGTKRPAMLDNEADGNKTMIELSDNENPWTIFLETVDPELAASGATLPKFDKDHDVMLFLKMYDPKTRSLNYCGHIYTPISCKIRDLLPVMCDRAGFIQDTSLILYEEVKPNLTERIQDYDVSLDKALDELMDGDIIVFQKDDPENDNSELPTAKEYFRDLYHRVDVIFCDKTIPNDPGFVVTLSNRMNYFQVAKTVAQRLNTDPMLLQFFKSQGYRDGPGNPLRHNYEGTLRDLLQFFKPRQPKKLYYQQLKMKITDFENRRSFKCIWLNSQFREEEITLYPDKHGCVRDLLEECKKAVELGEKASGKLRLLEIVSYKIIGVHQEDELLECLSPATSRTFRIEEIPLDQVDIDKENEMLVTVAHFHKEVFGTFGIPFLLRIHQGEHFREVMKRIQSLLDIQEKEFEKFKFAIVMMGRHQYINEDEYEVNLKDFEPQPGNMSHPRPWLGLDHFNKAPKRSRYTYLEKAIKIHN

As to `CC(NC(=O)C1CCCC1)C(=O)Nc1nnc(Cc2ccc([N+](=O)[O-])cc2)s1` (racemic), the Activity in experiment [1] and in experiment [2] was below 50% each time.

On to `CC(C)C[C@H](NC(=O)C1(C(F)(F)F)CCCCC1)C(=O)Nc1nnc(Cc2ccc(C#N)cc2)s1`, for which the inhibition entry in experiment [3] and in experiment [4] was “inactive” each time.
